From patent US7795220B2, “Conformationally constrained parathyroid hormones with alpha-helix stabilizers” (The General Hospital Corporation, priority 2003, dated 2010)
Where “and” joins values, the source holds several entries; their conditions need not be identical. Equal entries are not always repeated. Where two headings read alike, the source gives them in different places. Non-standard residues stand in square brackets, D forms with d. Residues, ends and D or L forms follow the SMILES beside them. No end group written: not given here. hArg = N=C(N)NCCCC[C@H](N)C(=O)O; Ac5c = NC1(C(=O)O)CCCC1; Deg = CCC(N)(CC)C(=O)O; Ac3c = NC1(C(=O)O)CC1; Aib = CC(C)(N)C(=O)O

How the values were obtained:
[1] = molecular target: T1, P1R (recombinant P1R chimera) in HKRK-B28 cells (UniProt P25107+P25961, A364S/A509S/A517P/A524T/DEL519-521/E344G/G506A/H528S/I365V/I416T/I429T/K402R/K465R/L320I/M408V/N352H/S511P/S523T/T335G/T421L/T487S/V367L/V433I); test: biochemical; format: binding, opposum/rat chimera; details: for IC50: apparent binding affinity (IC50), inhibition of 125I-rPTH(1-21) analog tracer binding, B28 cells
T1 construct: the opposum P1R from the N-terminus to the mid region of TM3; the rat P1R from the mid region of TM3 to the C-terminus; expressed in transfected cells
From the text: (§1) Cell Culture. The cell line HKRK-B28 (Takasu, H., et al., J. Bone Miner. Res. 14:11-20 (1999)) was derived from the porcine kidney cell line, LLC-PK1 by stable transfection with plasmid DNA encoding a recombinant P1R chimera comprised of the opposum P1R from the N-terminus to the mid region of TM3 and the rat P1R from the mid region of TM3 to the C-terminus. The surface density of the P1R in these cells is ˜280,000 receptors per cell. The clonal cell line LdelNt-2 was derived from LLC-PK, cells via stable transfection with a plasmid encoding P1R-delNt, a recombinant human PTH-1 receptor construct in which most of the amino-terminal extracellular domain is deleted. These cells, as well as COS-7 cells and SaOS-2-B10 cells, were cultured at […] in T-75 flasks ([…]) in Dulbecco's modified Eagle's medium (DMEM) supplemented with fetal bovine serum (10%), penicillin G (20 units/ml), streptomycin sulfate (20 μg/ml) and amphotericin B (0.05 μg/ml) in a humidified atmosphere containing 5% CO2. Stock solutions of EGTA/trypsin and antibiotics were from GLBCO; fetal bovine serum was from Hyclone Laboratories (Logan, Utah). COS-7 cells sub-cultured in 24-well plates were transfected with plasmid DNA (200 ng per well) encoding the wild-type human P1R or truncated human P1R deleted for residues (24-181) (Shimizu, M., et al., J. Biol. Chem. 275:21836-21843 (2000)) that was purified by cesium chloride/ethidium bromide density gradient centrifugation, and FuGENE 6 transfection reagent (Roche Indianapolis Ind.) according to the manufacturer's recommended procedure. All cells, in 24-well plates, were treated with fresh media and shifted to 33° C. for 12 to 24 h prior to assay.
Competition Binding. Binding reactions were performed with HKRK-B28 cells or in COS-7 cells in 24-well plates. The cells were rinsed with 0.5 mL of binding buffer, and then treated successively with 100 μL binding buffer, 100 μL of binding buffer containing various amounts of unlabeled competitor ligand, and 100 μL of binding buffer containing ca. 100,000 cpm of ^125I-[Aib^1,3,Nle^8,Gln^10,Har^11,Ala^12,Trp^14,Arg^19,Tyr^21]rPTH(1-21) (SEQ. ID. NO. 36) (ca. 26 fmol; final volume=300 μL). Incubations were 4 to 6 h at 4° C., at which time near equilibrium conditions were attained. Cells were then placed on ice, the binding medium was removed, and the monolayer was rinsed three times with 0.5 mL of cold binding buffer. The cells were subsequently lysed with 0.5 mL 5N NaOH and counted for radioactivity. For each tracer and in each experiment, the non-specific binding was determined as the radioactivity that bound in the presence of the same unlabeled peptide at a concentration of 1 μM, and was ˜1% of total radioactivity added for each tracer. The maximum specific binding (B0) was the total radioactivity bound in the absence of competing ligand, corrected for nonspecific binding, and for each tracer, ranged from 8% to 20% of the total radioactivity added. Nonlinear regression was used to calculate binding IC50 values (see below). Scatchard transformations of homologous competition binding data derived from studies with 26 fmol of ^125I-[Aib^1,3,Nle^8,Gln^10,Har^11,Ala^12,Trp^14, Arg^19,Tyr^21]rPTH(1-21) (SEQ. ID. NO. 36) were employed for estimations of apparent equilibrium dissociation constant (kDapps) and total number of ligand binding sites (Bmax), assuming a single class of binding sites and equal affinities of the iodinated and non iodinated ligand.
Data Calculation. Calculations were performed using Microsoft® Excel. Nonlinear regression analyses of binding and cAMP dose-response data were performed using the four-parameter equation: yp=Min+[(Max−Min)/(1+(IC50/x)^slope)]. The Excel Solver function was utilized for parameter optimization, as described previously (Carter, P. H., et al., Endocrinology 140: 4972-4981 (1999); Bowen, W. P., and Jerman, J. C., Trends in Pharmacol. Sci. 16: 413-417 (1995)). […]

[2] = test system: P1R (recombinant P1R chimera) in HKRK-B28 cells; test: cAMP stimulation in HKRK-B28 cells; format: cell-based, opposum/rat chimera; details: for cAMP signaling potency diminished relative to parent [M]PTH(1-14) / cAMP-stimulating potency higher than that of parent [M]PTH(1-14): relative to parent [M]PTH(1-14)
From the text: as §1
cAMP Stimulation. Stimulation of cells with peptide analogs was performed in 24-well plates. Cells were rinsed with 0.5 mL of binding buffer (50 mM Tris-HCl, 100 mM NaCl, 5 mM KCl, 2 mM CaCl2, 5% heat-inactivated horse serum, 0.5% fetal bovine serum, adjusted to pH 7.5 with HCl) and treated with 200 μL of cAMP assay buffer (Delbecco's modified Eagle's medium containing 2 mM 3-isobutyl-1-methylxanthine, 1 mg/mL bovine serum albumin, 35 mM Hepes-NaOH, pH 7.4) and 100 μL of binding buffer containing varying amounts of peptide analog (final volume=300 μL). The medium was removed after incubation for 30 to 60 minutes at room temperature, and the cells were frozen on dry ice, lysed with 0.5 mL 50 mM HCl, and refrozen ([…]). The cAMP content of the diluted lysate was determined by radioimmunoassay. The EC50 response values were calculated using nonlinear regression (see below).
Data Calculation. Calculations were performed using Microsoft® Excel. Nonlinear regression analyses of binding and cAMP dose-response data were performed using the four-parameter equation: yp=Min+[(Max−Min)/(1+(IC50/x)^slope)]. The Excel Solver function was utilized for parameter optimization, as described previously (Carter, P. H., et al., Endocrinology 140: 4972-4981 (1999); Bowen, W. P., and Jerman, J. C., Trends in Pharmacol. Sci. 16: 413-417 (1995)). Differences between paired data sets were statistically evaluated using a one-tailed Student's t-test, assuming unequal variances for the two sets.

[3] = relative to parent [M]PTH(1-14)

T1 sequence (P25107+P25961 fused with the stated changes): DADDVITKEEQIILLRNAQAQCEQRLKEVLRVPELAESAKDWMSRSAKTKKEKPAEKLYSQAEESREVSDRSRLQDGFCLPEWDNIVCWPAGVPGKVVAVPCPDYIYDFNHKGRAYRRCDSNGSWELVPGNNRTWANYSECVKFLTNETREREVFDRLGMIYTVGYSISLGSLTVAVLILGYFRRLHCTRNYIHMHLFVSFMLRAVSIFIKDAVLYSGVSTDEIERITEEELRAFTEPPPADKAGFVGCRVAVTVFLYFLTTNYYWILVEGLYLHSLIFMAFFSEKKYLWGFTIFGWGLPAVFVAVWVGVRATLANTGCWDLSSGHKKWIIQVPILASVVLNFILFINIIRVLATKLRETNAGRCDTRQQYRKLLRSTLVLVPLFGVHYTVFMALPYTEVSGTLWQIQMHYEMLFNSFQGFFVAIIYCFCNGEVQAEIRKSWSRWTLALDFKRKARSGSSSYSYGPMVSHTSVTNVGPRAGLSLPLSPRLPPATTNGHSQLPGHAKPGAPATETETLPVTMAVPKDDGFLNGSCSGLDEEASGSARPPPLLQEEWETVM

## CC[C@H](C)[C@H](NC(=O)[C@H](CCC(=O)O)NC(=O)C1(NC(=O)[C@@H](NC(=O)[C@H](C)N)C(C)C)CCCC1)C(=O)N[C@@H](CCC(N)=O)C(=O)N[C@@H](CC(C)C)C(=O)N[C@@H](CCSC)C(=O)N[C@@H](Cc1c[nH]cn1)C(=O)N[C@@H](CCC(N)=O)C(=O)N[C@@H](CCCCNC(=N)N)C(=O)N[C@@H](C)C(=O)N[C@@H](CCCCN)C(=O)N[C@@H](Cc1c[nH]c2ccccc12)C(N)=O [Ac5c^3] (H-AV[Ac5c]EIQLMHQ[hArg]AKW-NH2)
[1]
  IC50: ~3000 nM

## CC[C@H](C)[C@H](NC(=O)[C@H](CCC(=O)O)NC(=O)C(CC)(CC)NC(=O)[C@@H](NC(=O)[C@H](C)N)C(C)C)C(=O)N[C@@H](CCC(N)=O)C(=O)N[C@@H](CC(C)C)C(=O)N[C@@H](CCSC)C(=O)N[C@@H](Cc1c[nH]cn1)C(=O)N[C@@H](CCC(N)=O)C(=O)N[C@@H](CCCCNC(=N)N)C(=O)N[C@@H](C)C(=O)N[C@@H](CCCCN)C(=O)N[C@@H](Cc1c[nH]c2ccccc12)C(N)=O [Deg-3] (H-AV[Deg]EIQLMHQ[hArg]AKW-NH2)
[1]
  IC50: ~3000 nM
  P1R binding affinity (in words): little or no effect on binding affinity
[1]; [3]
  binding affinity higher than that of parent [M]PTH(1-14): around 1.5 fold
[2]
  cAMP signaling potency diminished relative to parent [M]PTH(1-14): approximately 10 fold
[2]; listed as Deg^3
  cAMP signaling potency diminished relative to parent [M]PTH(1-14): ~40 fold

## CC[C@H](C)[C@H](NC(=O)[C@H](CCC(=O)O)NC(=O)C(C)(C)NC(=O)[C@@H](NC(=O)C1(N)CCCC1)C(C)C)C(=O)N[C@@H](CCC(N)=O)C(=O)N[C@@H](CC(C)C)C(=O)N[C@@H](CCSC)C(=O)N[C@@H](Cc1c[nH]cn1)C(=O)N[C@@H](CCC(N)=O)C(N)=O [[Ac5c^1,Aib^3,M]PTH(1-10), [Ac5c^1,Aib^3,Gln^10]PTH(1-10)NH2] (H-[Ac5c]V[Aib]EIQLMHQ-NH2)
[1]; concentrations as high as 1×10^−4M, HKRK-B28 cells
  inhibition of tracer radioligand binding: neither peptide inhibited the binding
[2]; HKRK-B28 cells, peptide at 10 μM
  increase in cAMP levels relative to basal: 33 fold
[2]; HKRK-B28 cells, read-out: cAMP EC50 estimated from dose-response analysis
  EC50: ~3000 nM
[2]
  cAMP agonist activity / signaling potency (in words): clear cAMP response
[2]; Aib^3, Gln^10]PTH(1-10)
  cAMP agonist activity / signaling potency (in words): fall cAMP agonist, albeit with micromolar potency

## CC[C@H](C)[C@H](NC(=O)[C@H](CCC(=O)O)NC(=O)[C@H](C)NC(=O)[C@@H](NC(=O)[C@H](C)N)C(C)C)C(=O)N[C@@H](CCC(N)=O)C(=O)N[C@@H](CC(C)C)C(=O)N[C@@H](CCSC)C(=O)N[C@@H](Cc1c[nH]cn1)C(=O)N[C@@H](CCC(N)=O)C(=O)N[C@@H](CCCCNC(=N)N)C(=O)N[C@@H](C)C(=O)N[C@@H](CCCCN)C(=O)N[C@@H](Cc1c[nH]c2ccccc12)C(N)=O [[M]PTH(1-14), [Ala^1,3,12,Gln^10,Har^11,Trp^14]PTH(1-14)NH2, reference compound] (H-AVAEIQLMHQ[hArg]AKW-NH2)
[2]; HKRK-B28 cells, intracellular cAMP accumulation, listed as [Ala^1,3,12,Gln^10,Har^11,Trp^14]PTH(1-14)NH2, read-out: cAMP-stimulating potency (EC50)
  EC50: 220 ± 80 nM
[2]; HKRK-B28 cells, intracellular cAMP accumulation, read-out: cAMP-stimulating potency (EC50)
  EC50: 200 nM
[2]; HKRK-B28 cells, n=7
  maximum cAMP response: 225±21 picomoles of cAMP per well

## CC[C@H](C)[C@H](NC(=O)[C@H](CCC(=O)O)NC(=O)[C@H](C)NC(=O)[C@@H](NC(=O)[C@H](C)N)C(C)C)C(=O)N[C@@H](CCC(N)=O)C(=O)N[C@@H](CC(C)C)C(=O)N[C@@H](CCSC)C(=O)N[C@@H](Cc1cnc[nH]1)C(=O)N[C@@H](CCC(N)=O)C(=O)N[C@@H](CCCCN=C(N)N)C(=O)N[C@@H](C)C(=O)N[C@@H](CCCCN)C(=O)N[C@@H](Cc1c[nH]c2ccccc12)C(N)=O [[M]PTH(1-14), [Ala^1,3,12,Gln^10,Har^11,Trp^14]PTH(1-14)NH2, reference compound] (H-AVAEIQLMHQ[hArg]AKW-NH2)
[1]
  IC50: ~3000 nM and 600 nM

## Ac3c-3: parent [M]PTH(1-14) analog in which alanine-3 was substituted with 1-aminocyclopropane-1-carboxylic acid (Ac3c)
[1]; [3]
  binding affinity lower than that of parent [M]PTH(1-14): approximately 10 fold
[2]
  cAMP-stimulating potency higher than that of parent [M]PTH(1-14): < two

## Ac5c-3: parent [M]PTH(1-14) analog in which alanine-3 was substituted with 1-aminocyclopentane-1-carboxylic acid (Ac5c)
[1]
  P1R binding affinity (in words): little or no effect on binding affinity
[2]
  cAMP-stimulating potency higher than that of parent [M]PTH(1-14): < two

## [Ac3c^1,3,Gln^10,Har^11,Ala^12,Trp^14]PTH(1-14)NH2 ([Ac3c]V[Ac3c]EIQLMHQ[hArg]AKW-NH2) [[Ac3c^1,3,M]PTH(1-14)]
[1]
  P1R binding affinity (in words): comparable to the parent peptide
[2]
  cAMP agonist activity / signaling potency (in words): comparable to the parent peptide

## [Aib^1,3,Gln^10]PTH(1-10)NH2 ([Aib]V[Aib]EIQLMHQ-NH2; N-terminus assumed; SMILES CC[C@H](C)[C@H](NC(=O)[C@H](CCC(=O)O)NC(=O)C(C)(C)NC(=O)[C@@H](NC(=O)C(C)(C)N)C(C)C)C(=O)N[C@@H](CCC(N)=O)C(=O)N[C@@H](CC(C)C)C(=O)N[C@@H](CCSC)C(=O)N[C@@H](Cc1c[nH]cn1)C(=O)N[C@@H](CCC(N)=O)C(N)=O) [ID; NO; 35]
[2]; HKRK-B28 cells, peptide at 1×10^−4M
  increase in cAMP levels relative to basal: two
[2]; P1R-transfected cells
  activity / cAMP response in cell-based assays (in words): measurable cAMP responses can be detected

## native PTH(1-9): native PTH(1-9) (SEQ. ID. NO. 33) (SVSEIQLMH-NH2) [reference compound]
[2]; peptide at 10^−4M
  cAMP agonist activity at single high concentration (in words): inactive
